Experimental data published in patent US8980846B2, “Composition containing styraxlignolide A or the aglycone thereof as an active ingredient for preventing or treating asthma” (Korea Research Institute of Bioscience and Biotechnology, priority 2010, dated 2015).

What was measured:
[1] = tested on: inflammatory cells in the airway mucosa; test: Inflammatory cell infiltration in airway mucosa, inflammatory index (H&E staining); type: in vivo, Balb/c female mice; conditions: asthma-induced mice, scale 0-4
IL-17 = IL-17 in bronchoalveolar lavage fluid; type: in vivo, Balb/c female mice; conditions: asthma-induced mice, homoegonol study; 3 mg/kg PO
Method: (§1) To prepare bronchial asthma-induced experimental animals, six-week-old Balb/c female mice of mean weight about 20 g were used. After one week of adaptation, individuals which had no observed abnormality on a basic physical examination were targeted. 200 μL of phosphate buffered saline (PBS)(pH 7.4) in which 2 mg of aluminum hydroxide (A8222, Sigma, St. Louis, Mo.) and 20 μg of ovalbumin (A5503, Sigma, St. Louis, Mo.) were suspended was injected into the peritoneal cavity at two-week intervals to result in sensitization. On days 28 to 30 after the first intraperitoneal administration of ovalbumin, inhalation challenge was performed for 30 min with 1% ovalbumin using an ultrasonic atomizer. 24 hours after the last antigen administration, airway hyperresponsiveness was measured. After 24 hours, a lethal dose of pentobarbital (Entobar®, Hanlim Pharm Co., Ltd.) was administered, body weight measurement and bronchotomy were performed, and bronchoalveolar lavage was performed with a total 1.2 mL of physiological saline, and then, samples were collected. […] Eight white mice were used for each group. Experimental groups for homoegonol were a group (hE7.5) in which animals were orally administered with 7.5 mg/kg homoegonol 1 hour prior to ovalbumin inhalation, a group (hE15) in which animals were orally administered with 15 mg/kg homoegonol 1 hour prior to ovalbumin inhalation, and a group (hE30) in which animals were orally administered with 30 mg/kg homoegonol 1 hour prior to ovalbumin inhalation, and five white mice were used for each group.
(§2) To examine the effect of homoegonol on airway remodeling, generation of TGF-β1 and IL-17 in bronchoalveolar lavage fluid was measured.

[2] = tested on: inflammatory cells in bronchoalveolar lavage fluid; test: Inflammatory cell counts in bronchoalveolar lavage fluid (Diff-Quick staining); type: in vivo, Balb/c female mice; conditions: asthma-induced mice
TGF-β1 = TGF-β1 in bronchoalveolar lavage fluid; type: in vivo, Balb/c female mice; conditions: asthma-induced mice, homoegonol study; 3 mg/kg PO
Method: as §1, §2

[3] = Body weight in asthma-induced mice; type: in vivo, Balb/c female mice; conditions: 3 mg/kg PO 1 hour prior to ovalbumin inhalation
Method: as §1
(§3) To determine an effect of styraxlignolide A on reduction in body weight in asthma-induced mice, body weight of each mouse prepared in Example 2 was measured. For statistical analyses for all measurements, means and standard errors (mean±S.E.) according to a number of variables were calculated, and comparison between each group was analyzed by performing a Mann-whitney U test using SPSS 10.0. Statically significance was accepted at p<0.05.
as §3, with “homoegonol” for “styraxlignolide A”

[4] = tested on: fibrosis in subsegmental bronchi; test: Fibrosis in subsegmental bronchi (Masson's trichrome staining); type: in vivo, Balb/c female mice; conditions: asthma-induced mice, styraxlignolide A study; 3 mg/kg PO 1 hour prior to ovalbumin inhalation
Method: as §1

goblet cells [5] = test: Ratio of goblet cells to bronchial epithelial cells (PAS staining); type: in vivo, Balb/c female mice; conditions: asthma-induced mice, homoegonol study, 3 mg/kg PO
goblet cells [6] = test: as above; type: in vivo, Balb/c female mice; conditions: asthma-induced mice, styraxlignolide A study; 3 mg/kg PO 1 hour prior to ovalbumin inhalation
Method: as §1
Lungs removed from each individual were subjected to conventional formalin fixation and paraffin embedding, and permanent section slides of 4 μm thickness were prepared, and periodic acid Schiff (PAS) staining was performed to determine goblet cells. Proliferation of goblet cells was assessed by measuring the ratio of goblet cells to bronchial epithelial cells.
In accordance with the method in <Experimental Example 7-2>, the ratio of goblet cells which were determined by periodic acid-Schiff staining to bronchial epithelial cells were measured to assess proliferation of goblet cells.

[7] = tested on: inflammatory cells in bronchoalveolar lavage fluid; test: Inflammatory cell counts in bronchoalveolar lavage fluid (Diff-Quick staining); type: in vivo, Balb/c female mice; conditions: asthma-induced mice; remark: listed apart in the source
Method: as §1
Bronchoalveolar lavage fluid was collected from individuals of each experimental group in <Example 2> and right after the collection, fluid was stained with trypan blue. The number of total cells except dead cells was calculated using a hemocytometer. Then, Diff-Quick staining (Sysmex, Swizerland) was performed after smear preparation with Cytospin II, and eosinophils and other inflammatory cells were differentially counted.
To examine the effect of homoegonol on asthma, variation in the numbers of asthma-related inflammatory cells was measured according to the method in <Experimental Example 3>.

[8] = tested on: alanine aminotransferase (ALT) and aspartate aminotransferase (AST) in serum; type: in vivo; conditions: mouse, in vivo, po, 3 mg/kg
Method: as §1
To examine liver toxicity of styraxlignolide A, a commercially available ELISA kit (BECKMAN Coulter, Inc., Fullerton, Calif., USA) was used to measure alanine aminotransferase (ALT) and aspartate aminotransferase (AST) in serum.

ovalbumin-specific IgE = test: IgE levels in serum and bronchoalveolar lavage fluid (ELISA); type: in vivo, Balb/c female mice; conditions: asthma-induced mice, homoegonol study, 3 mg/kg PO
[9] = tested on: airway hyperresponsiveness; test: Airway hyperresponsiveness, Penh by one chamber plethysmography after methacholine inhalation; type: in vivo, Balb/c female mice; conditions: asthma-induced mice, homoegonol study, 3 mg/kg PO
Method: as §1, with “Experimental groups for homoegonol were a group (hE7.5) in which animals were orally administered with 7.5 mg/kg homoegonol 1 hour prior to ovalbumin inhalation, a group (hE15) in which animals were orally administered with 15 mg/kg homoegonol 1 hour prior to ovalbumin inhalation, and a group (hE30) in which animals were orally administered with 30 mg/kg homoegonol 1 hour prior to ovalbumin inhalation, and five white mice were used for each group.” left out
The effect of styraxlignolide A on airway hyperresponsiveness caused by asthma occurrence was examined by measuring airway resistance with one chamber plethysmography (All medicus, Seoul, Republic of Korea) and degree of airway resistance was assessed by measuring Penh (enhanced pause) values. The baseline value was measured under a normal respiratory condition, and then, PBS was inhaled using an ultrasonic atomizer for 3 min, and Penh values were measured over 3 min. […] Louis, Mo.) which is used in general methods for diagnosis of bronchial asthma were inhaled and Penh values were measured. Penh value is shown in the following Equation 1, and the resulting Penh value was expressed as a percent increase in Penh after inhalation of each concentration of methacholine. The baseline Penh (saline challenge) was expressed as 100%.
Te: expiratory time (sec), the time from inspiration to the next inspiration
RT: relaxation time, the elapsed time between the beginning of the expiration and the moment when the remaining 30% of the tidal volume has been reached during expiration
PEF: Peak expiration flow
PIF: Peak inspiration flow
To examine the effect of homoegonol on airway hyperresponsiveness caused by asthma occurrence, Penh value was measured according to the method in <Experimental Example 2>.

[10] = homoegonol study, 3 mg/kg PO, 3 mg/kg
[11] = styraxlignolide A study, 3 mg/kg PO 1 hour prior to ovalbumin inhalation
[12] = homoegonol study, 3 mg/kg PO, bronchoalveolar lavage fluid, 3 mg/kg

C[C@@H]1C[C@H]2[C@@H]3CCC4=CC(=O)C=C[C@]4(C)[C@@]3(F)[C@@H](O)C[C@]2(C)[C@@]1(O)C(=O)CO [DEXA, dexamethasone]
Inflammatory index, peribronchiolar [1, 10]: 0.78±0.1315 | Inflammatory index, perivascular [1, 10]: 0.44±0.1571 | peribronchiolar inflammatory index [1, 11]: 1.46±0.26 | IL-17 concentrations in bronchoalveolar lavage fluid (IL-17): 48.8409 ± 4.3738 pg/mL | Number of cells, Eosinophils [2, 12]: 1.32±0.49 ×10^3 cells/mouse | Number of cells, Total inflammatory cells [2, 12]: 20.04±4.7744 ×10^3 cells/mouse | numbers of total inflammatory cells in bronchoalveolar lavage fluid [2, 11]: 153.48±19.69 | TGF-β1 concentrations in bronchoalveolar lavage fluid (TGF-β1): 159.2813 ± 12.9548 pg/mL | body weight ([3]; homoegonol study): 19.98 ± 0.39 g | body weight ([3]; styraxlignolide A study): 20.49 ± 0.29 g | area of a fibrosis stained region per 100 μm of a basement membrane perimeter [4]: 639.59±106.96 μm^2 | Goblet cells %/bronchial epithelial cell unit (goblet cells [5]): 18.7828±5.9397% | ratio of goblet cells to bronchiolar epithelial cells (goblet cells [6]): 34.96±6.86% | Number of cells, Other inflammatory cells ([7]; homoegonol study, 3 mg/kg PO, bronchoalveolar lavage fluid): 18.72 ± 2.2919 ×10^3 cells/mouse | numbers of eosinophils in bronchoalveolar lavage fluid [7, 11]: 41.88±9.08 | serum ALT [8]: 274.67±12.12 IU/L | serum AST [8]: 369.33±31.27 IU/L | Total IgE level in bronchoalveolar lavage fluid (ovalbumin-specific IgE; bronchoalveolar lavage fluid): 24.3617 ± 4.8149 ng/mL | Total serum IgE level (ovalbumin-specific IgE; serum, Table 2): 9.14 ± 2.0591 µg/mL | Penh values ([9]; methacholine 0 mg/ml): 0.4407 ± 0.0422 | Penh values ([9]; methacholine 12.5 mg/ml): 0.7768 ± 0.1475 | Penh values ([9]; methacholine 25 mg/ml): 0.8900 ± 0.1619 | Penh values ([9]; methacholine 50 mg/ml): 1.1036 ± 0.4048
